The results in this text go back to ChEMBL document CHEMBL5465560, “Selectivity Literature for EUbOPEN Chemogenomic Library” (2024).

The target in assay [1] is T1, NUAK family SNF1-like kinase 1 (Homo sapiens) (UniProt O60285).
T1 sequence (whole entry): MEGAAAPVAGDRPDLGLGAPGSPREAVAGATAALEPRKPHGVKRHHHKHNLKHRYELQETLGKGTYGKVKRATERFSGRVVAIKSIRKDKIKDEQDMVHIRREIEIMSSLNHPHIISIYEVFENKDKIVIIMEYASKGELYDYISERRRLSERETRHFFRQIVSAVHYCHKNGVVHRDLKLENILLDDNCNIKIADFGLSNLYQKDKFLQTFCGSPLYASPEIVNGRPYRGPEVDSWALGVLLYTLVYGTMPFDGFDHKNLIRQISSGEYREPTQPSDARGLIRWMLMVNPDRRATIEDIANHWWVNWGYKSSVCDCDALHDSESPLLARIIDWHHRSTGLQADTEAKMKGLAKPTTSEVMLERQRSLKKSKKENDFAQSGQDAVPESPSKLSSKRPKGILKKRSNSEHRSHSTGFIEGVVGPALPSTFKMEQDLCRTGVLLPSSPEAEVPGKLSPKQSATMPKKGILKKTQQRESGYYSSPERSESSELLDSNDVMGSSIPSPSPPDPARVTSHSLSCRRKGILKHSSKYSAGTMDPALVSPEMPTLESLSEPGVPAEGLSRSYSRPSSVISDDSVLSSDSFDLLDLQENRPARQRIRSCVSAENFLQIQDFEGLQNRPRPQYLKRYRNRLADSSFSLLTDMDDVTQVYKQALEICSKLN
Put plainly: Selectivity interaction (ProQinase) EUB0000171b NUAK1.

The target in assay [2] is T2, Serine/threonine-protein kinase DCLK3 (Homo sapiens) (UniProt Q9C098).
T2 sequence (whole entry): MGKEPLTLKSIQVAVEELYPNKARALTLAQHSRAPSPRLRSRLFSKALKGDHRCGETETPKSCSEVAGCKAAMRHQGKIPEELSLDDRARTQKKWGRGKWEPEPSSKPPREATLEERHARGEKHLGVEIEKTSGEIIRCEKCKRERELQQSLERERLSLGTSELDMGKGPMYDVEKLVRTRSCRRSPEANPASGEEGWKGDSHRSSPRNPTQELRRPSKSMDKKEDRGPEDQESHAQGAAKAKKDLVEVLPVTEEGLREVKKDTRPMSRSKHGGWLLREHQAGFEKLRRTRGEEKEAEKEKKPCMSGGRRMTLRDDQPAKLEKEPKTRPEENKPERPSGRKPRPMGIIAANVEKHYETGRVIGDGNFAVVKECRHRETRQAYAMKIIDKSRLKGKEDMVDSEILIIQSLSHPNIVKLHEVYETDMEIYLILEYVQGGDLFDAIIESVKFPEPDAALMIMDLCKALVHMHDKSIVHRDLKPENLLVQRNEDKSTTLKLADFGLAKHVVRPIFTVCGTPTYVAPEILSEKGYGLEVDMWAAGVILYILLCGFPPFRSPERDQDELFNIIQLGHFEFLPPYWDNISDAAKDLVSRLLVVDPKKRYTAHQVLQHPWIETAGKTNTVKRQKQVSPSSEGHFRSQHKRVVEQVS
The following applies: at 10 µM.

Assay [3] concerns the target Glycogen synthase kinase-3 beta (Homo sapiens, UniProt P49841). The note with it: at 10 µM.
The next assay concerns the target Insulin receptor (Homo sapiens, UniProt P06213). Kind of assay: Selectivity interaction (KinomeScan (DiscoverX)) EUB0001049a INSR. The following applies: at 1 µM.
The target of assay [4] is T3, Receptor-interacting serine/threonine-protein kinase 4 (Homo sapiens) (UniProt P57078).
T3 sequence (whole entry): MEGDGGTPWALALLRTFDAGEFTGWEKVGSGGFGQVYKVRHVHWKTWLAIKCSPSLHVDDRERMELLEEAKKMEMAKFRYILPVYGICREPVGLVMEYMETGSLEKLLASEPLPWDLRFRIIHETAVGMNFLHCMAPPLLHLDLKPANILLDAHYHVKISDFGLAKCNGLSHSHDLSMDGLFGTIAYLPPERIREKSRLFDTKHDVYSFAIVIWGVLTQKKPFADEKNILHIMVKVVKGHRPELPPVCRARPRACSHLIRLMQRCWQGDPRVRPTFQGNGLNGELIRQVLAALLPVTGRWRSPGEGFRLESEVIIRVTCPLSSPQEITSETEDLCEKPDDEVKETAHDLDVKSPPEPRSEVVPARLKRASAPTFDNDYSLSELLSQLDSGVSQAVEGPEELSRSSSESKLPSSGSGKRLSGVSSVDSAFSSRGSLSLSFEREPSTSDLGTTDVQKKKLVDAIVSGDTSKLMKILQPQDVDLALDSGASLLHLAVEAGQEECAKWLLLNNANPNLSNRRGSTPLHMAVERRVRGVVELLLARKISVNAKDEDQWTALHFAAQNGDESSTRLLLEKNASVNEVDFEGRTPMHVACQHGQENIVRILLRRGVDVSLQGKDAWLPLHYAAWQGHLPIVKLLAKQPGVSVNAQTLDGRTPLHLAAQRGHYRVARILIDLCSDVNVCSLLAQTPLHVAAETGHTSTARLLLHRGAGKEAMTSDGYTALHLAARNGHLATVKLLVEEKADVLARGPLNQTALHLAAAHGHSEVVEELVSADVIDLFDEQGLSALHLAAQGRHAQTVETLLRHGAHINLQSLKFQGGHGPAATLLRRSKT
Put plainly: Selectivity interaction (KinomeScan (DiscoverX)) EUB0000655a RIPK4. The note with it: at 10 µM.

Assay [5] has as its system eIF-2-alpha kinase GCN2 (Homo sapiens), Q9P2K8 [S808G]. Kind of assay: Selectivity interaction (KinomeScan (DiscoverX)) EUB0000695a EIF2AK4. The following applies: at 100 nM.
Assay [6] concerns the target Tyrosine-protein kinase Lyn (Homo sapiens, UniProt P07948). Put plainly: Selectivity interaction (ActivX KiNativ screen (kinase selectivity in THP-1 cell lysates)) EUB0000639a LYN. Type of assay: subcellular. The following applies: lysate, at 1 µM.
For assay [7], the target named is T4, Calcium/calmodulin-dependent protein kinase type IV (Homo sapiens) (UniProt Q16566).
T4 sequence (whole entry): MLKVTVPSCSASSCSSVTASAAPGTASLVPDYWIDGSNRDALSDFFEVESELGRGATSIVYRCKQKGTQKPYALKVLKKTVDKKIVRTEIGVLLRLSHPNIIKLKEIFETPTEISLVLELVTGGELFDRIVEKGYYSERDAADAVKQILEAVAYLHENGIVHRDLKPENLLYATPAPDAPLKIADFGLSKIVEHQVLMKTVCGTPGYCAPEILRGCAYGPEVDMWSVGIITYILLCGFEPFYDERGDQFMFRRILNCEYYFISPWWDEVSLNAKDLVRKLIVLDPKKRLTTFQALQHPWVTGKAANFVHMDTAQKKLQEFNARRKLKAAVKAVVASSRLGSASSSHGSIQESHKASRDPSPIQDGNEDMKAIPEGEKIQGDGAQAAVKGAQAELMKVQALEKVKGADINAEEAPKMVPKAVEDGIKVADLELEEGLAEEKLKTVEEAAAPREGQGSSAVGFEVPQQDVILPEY
Kind of assay: Selectivity interaction (Kinase panel (DSF assay)) EUB0001559a CAMK4.

Glycogen synthase kinase-3 beta, sequence (P49841 whole entry, looked up): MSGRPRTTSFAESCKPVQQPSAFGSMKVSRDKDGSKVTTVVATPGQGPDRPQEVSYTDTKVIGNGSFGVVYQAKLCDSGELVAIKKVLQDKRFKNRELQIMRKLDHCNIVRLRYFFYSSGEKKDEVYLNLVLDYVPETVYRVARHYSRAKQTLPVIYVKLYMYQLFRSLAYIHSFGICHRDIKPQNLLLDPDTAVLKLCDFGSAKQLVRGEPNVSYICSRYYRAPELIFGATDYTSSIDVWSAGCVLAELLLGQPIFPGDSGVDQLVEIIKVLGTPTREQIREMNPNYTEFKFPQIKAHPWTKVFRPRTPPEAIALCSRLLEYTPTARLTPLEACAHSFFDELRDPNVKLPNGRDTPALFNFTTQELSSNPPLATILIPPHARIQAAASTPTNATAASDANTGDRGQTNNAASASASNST
Tyrosine-protein kinase Lyn, sequence (P07948 2-512 limits assumed): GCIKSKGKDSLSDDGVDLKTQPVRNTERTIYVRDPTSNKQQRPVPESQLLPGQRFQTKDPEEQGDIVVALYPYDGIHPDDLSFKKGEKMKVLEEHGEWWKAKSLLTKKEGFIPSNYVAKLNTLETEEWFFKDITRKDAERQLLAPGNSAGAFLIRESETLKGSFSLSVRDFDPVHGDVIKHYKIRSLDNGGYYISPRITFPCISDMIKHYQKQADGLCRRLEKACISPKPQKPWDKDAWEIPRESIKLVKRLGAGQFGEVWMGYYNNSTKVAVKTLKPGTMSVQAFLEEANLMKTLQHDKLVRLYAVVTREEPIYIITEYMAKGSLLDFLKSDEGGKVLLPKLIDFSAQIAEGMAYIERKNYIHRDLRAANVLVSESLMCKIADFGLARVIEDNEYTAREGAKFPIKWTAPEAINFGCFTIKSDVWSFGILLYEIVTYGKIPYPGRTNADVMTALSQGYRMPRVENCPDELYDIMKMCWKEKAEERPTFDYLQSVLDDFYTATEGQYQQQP
eIF-2-alpha kinase GCN2 (Homo sapiens), Q9P2K8 [S808G], sequence (Q9P2K8 whole entry S808G): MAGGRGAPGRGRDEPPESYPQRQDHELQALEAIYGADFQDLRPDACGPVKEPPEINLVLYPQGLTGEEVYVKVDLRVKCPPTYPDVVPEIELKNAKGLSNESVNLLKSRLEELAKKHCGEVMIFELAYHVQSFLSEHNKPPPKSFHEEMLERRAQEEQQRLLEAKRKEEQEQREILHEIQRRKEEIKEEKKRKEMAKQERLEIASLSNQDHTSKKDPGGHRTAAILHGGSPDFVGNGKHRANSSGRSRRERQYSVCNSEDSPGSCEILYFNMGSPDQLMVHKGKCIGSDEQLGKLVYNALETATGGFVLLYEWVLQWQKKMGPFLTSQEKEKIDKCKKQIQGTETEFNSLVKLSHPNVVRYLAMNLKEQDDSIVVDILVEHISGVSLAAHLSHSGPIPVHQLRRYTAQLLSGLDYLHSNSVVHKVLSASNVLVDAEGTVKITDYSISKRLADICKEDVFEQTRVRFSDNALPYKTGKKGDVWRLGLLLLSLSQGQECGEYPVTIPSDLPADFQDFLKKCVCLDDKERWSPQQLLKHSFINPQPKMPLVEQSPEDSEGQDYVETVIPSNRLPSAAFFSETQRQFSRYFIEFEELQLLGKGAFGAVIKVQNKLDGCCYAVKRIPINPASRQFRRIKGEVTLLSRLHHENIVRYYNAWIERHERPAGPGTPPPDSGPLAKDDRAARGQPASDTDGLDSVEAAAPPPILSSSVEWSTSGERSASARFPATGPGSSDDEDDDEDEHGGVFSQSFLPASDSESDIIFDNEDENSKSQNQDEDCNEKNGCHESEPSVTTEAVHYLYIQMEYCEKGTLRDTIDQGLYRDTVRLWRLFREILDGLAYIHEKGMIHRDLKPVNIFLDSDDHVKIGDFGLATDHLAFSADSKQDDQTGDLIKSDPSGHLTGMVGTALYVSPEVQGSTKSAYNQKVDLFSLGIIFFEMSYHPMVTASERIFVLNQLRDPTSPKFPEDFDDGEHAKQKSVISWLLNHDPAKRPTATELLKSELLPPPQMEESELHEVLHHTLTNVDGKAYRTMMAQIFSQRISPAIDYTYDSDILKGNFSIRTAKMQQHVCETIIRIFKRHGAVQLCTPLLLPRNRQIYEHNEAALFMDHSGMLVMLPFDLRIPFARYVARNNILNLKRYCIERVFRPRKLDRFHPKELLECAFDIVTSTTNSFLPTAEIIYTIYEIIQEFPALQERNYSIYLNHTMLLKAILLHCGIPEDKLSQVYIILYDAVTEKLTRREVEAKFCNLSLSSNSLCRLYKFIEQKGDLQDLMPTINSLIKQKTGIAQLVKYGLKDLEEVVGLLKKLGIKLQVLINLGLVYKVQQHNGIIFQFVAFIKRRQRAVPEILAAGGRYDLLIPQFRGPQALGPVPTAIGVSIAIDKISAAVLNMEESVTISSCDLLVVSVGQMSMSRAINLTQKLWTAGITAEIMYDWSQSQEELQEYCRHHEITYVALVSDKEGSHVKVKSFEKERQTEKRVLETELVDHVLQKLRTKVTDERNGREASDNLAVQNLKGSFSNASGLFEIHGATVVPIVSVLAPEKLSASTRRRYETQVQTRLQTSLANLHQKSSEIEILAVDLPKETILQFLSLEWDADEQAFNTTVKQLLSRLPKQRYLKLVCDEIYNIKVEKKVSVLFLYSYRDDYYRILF
Insulin receptor, sequence (P06213 28-758 limits assumed): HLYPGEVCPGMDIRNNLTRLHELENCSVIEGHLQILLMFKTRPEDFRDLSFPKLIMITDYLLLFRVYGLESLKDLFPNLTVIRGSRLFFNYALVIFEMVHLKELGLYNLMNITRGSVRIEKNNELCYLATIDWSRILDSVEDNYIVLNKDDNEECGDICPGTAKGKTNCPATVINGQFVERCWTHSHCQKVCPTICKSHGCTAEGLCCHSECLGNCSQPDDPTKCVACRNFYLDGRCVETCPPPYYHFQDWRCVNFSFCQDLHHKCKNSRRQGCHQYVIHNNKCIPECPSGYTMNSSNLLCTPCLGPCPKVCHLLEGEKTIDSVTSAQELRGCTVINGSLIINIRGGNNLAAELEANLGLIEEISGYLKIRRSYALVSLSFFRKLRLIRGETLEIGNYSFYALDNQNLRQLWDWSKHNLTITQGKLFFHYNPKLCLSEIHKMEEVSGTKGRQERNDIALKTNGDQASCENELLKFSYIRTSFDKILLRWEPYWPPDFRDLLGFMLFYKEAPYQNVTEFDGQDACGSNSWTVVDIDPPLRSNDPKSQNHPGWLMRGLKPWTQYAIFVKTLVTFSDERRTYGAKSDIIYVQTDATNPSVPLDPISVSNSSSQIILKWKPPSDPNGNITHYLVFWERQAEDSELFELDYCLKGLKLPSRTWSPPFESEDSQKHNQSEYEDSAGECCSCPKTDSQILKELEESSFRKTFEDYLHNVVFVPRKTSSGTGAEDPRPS
Insulin receptor, sequence (P06213 763-1382 limits assumed): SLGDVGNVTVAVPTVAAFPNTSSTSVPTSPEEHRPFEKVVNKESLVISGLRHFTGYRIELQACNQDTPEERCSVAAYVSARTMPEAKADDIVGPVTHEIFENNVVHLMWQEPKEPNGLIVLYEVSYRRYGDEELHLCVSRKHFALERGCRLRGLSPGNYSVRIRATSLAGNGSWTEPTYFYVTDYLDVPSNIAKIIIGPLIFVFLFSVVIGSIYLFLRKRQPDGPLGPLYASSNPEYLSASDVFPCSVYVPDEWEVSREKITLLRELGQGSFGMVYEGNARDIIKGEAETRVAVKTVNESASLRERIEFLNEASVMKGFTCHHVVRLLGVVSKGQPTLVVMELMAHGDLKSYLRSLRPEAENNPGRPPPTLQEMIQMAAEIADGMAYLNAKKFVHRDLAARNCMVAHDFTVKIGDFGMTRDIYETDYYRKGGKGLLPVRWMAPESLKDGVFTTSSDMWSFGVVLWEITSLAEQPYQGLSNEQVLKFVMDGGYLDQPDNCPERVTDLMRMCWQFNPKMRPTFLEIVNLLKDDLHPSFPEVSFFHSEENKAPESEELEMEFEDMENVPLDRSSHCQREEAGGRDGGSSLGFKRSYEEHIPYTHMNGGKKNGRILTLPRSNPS

In the case of `C=CC(=O)Nc1cccc(C(=O)Nc2ccc(Nc3cc(-c4[nH]c(SC)nc4C)ccn3)cc2)c1`, the % of control in assay [1] (at 1 µM) turned out to be 97%; in assay [1] (at 5 µM), 88%.

The compound `Cc1cc([C@@H](C)Nc2ccccc2C(=O)O)c2nc(N3CCOCC3)cc(=O)n2c1` [AZD-6482] yielded a % of control in assay [2] of 85%. The compound `CCN(CC)CCCCNc1ncc2cc(-c3cc(OC)cc(OC)c3)c(NC(=O)NC(C)(C)C)nc2n1` displayed a % of control in assay [3] of 100%. As to `COc1cc(Nc2nc(C)cc(-c3cnn4nc(OC)ccc34)n2)cc(C(F)(F)F)c1`, on Insulin receptor, the % of control was 71%. In the case of `CN(C)CCOc1ccc(-c2nc(-c3ccncc3)c(-c3ccc4c(c3)CC/C4=N\O)[nH]2)cc1`, in assay [4], the % of control came to 100%. Take `Cc1cc(F)c(C(=O)Nc2cccc(-c3nncn3C(C)C)n2)cc1-n1cnc(C2CC2)c1`: the % of control in assay [5] is 77%. Take `CC[C@@H]1[C@H](F)C(=O)N[C@@H]1COc1nccc2cc(C(N)=O)c(OC)cc12` [ZIMLOVISERTIB]: the % of inhibition in assay [6] was -14.1%. In the case of `CN(C(=O)c1cnn2cccnc12)c1cc2c(cc1N1CCOCC1)C(=O)N(C[C@@H](F)C(C)(C)O)C2`, in assay [7], the dTM is -0.4 K.
